Results as given in US12358901B2, “KV3 modulators” (priority 2018, dated 2025).

How the values were obtained:
[1] = Determination of brain tissue binding (equilibrium dialysis); format: in vitro ADME; conditions: Sprague Dawley, rat whole brain homogenate, 5 h at 37° C.
Experimental: Sprague Dawley rat whole blood, collected on the week of the experiment using K3-EDTA as an anti-coagulant, is diluted with isotonic phosphate buffer 1:1 (v/v). Sprague Dawley rat whole brain, stored frozen at −20° C., is thawed and homogenised in artificial cerebrospinal fluid (CSF) 1:2 (w/v).
An appropriate amount of test compound is dissolved in DMSO to give a 10 millimolar solution. Further dilutions, to obtain a 166.7 micromolar working solution are then prepared using 50% acetonitrile in MilliQ water. This working solution is used to spike the blood to obtain a final concentration of 0.5 micromolar in whole blood. Similarly, the working solution is used to spike brain samples to obtain a final concentration of 5 micromolar in whole brain. From these spiked blood and brain preparations, control samples (n=3), are immediately extracted and used to calculate the initial recovery of the test items.
150 microL of compound-free buffer (isotonic phosphate buffer for blood or artificial CSF buffer for brain) is dispensed in one half-well and 150 microL of spiked matrix (blood or brain) is loaded in the other half-well, with the two halves separated by a semi-permeable membrane. After an equilibration period of 5 h at 37° C., 50 microL of dialysed matrix (blood or brain) is added to 50 microL of corresponding compound-free buffer, and vice-versa for buffer, such that the volume of buffer to matrix (blood or brain) remains the same. Samples are then extracted by protein precipitation with 300 microL of acetonitrile containing rolipram (control for positive ionization mode) or diclofenac (control for negative ionization mode) as internal standards and centrifuged for 10 min at 3000 rpm. Supernatants are collected (100 microL), diluted with 27% AcN in MilliQ water (200 microL) and then injected into an HPLC-MS/MS or UPLC-MS/MS system to determine the concentration of test compound present.
Blood and brain tissue binding are then determined using the following formulas: Afu=Buffer/Blood or Afu=CSF/Brain
Where Afu=apparent fraction unbound; Buffer=analyte/internal standard ratio determined in the buffer compartment; Blood=analyte/internal standard ratio determined in the blood compartment; Brain=analyte/internal standard ratio determined in the brain compartment.
[formula] where: fucr=Fraction unbound corrected; D=matrix dilution factor (D=2 for blood and D=3 for brain).
Then: % Binding=(1−fucr)×100 % Unbound=100−% Bound Brain/Blood Partition Ratio (Kbb) Determination

[2] = In vitro metabolic stability study in human hepatocytes; format: in vitro ADME; conditions: for In vitro CLint / Rate constant k: 0.5 uM, human cryopreserved hepatocytes, 37° C.; for Rate constant k: up to 180 min; for clearance in human hepatocytes (in words): compared to pyridine comparator compounds RE11 and RE13
Experimental: The objective of this study was to determine metabolic stability in mixed gender human cryopreserved hepatocytes. Testosterone and 7-Hydroxycoumarin were used as positive controls for Phase I and Phase II metabolism, respectively.
Incubation medium was prepared by combining William's medium E, HEPES buffer 1 M and L-glutamine 200 mM in the following proportions: 88%, 10% and 2%, respectively (440 mL, 50 mL and 10 mL, respectively). The medium obtained was bubbled with carbogen (5% CO2, 95% O2) for 30 minutes prior to use. Cryopreserved hepatocytes were thawed and suspended in incubation medium pre-warmed at 37° C. Cells were centrifuged, re-suspended in medium and counted by means of a haemocytometer (Burker's chamber). Cell viability was measured using the Trypan Blue exclusion test.
Test compounds were separately dissolved in DMF to obtain 50 mM stock solutions that were further diluted in water/acetonitrile 50/50 (v/v) to obtain the corresponding 50 uM working solutions. Testosterone and 7-Hydroxy-Coumarin were dissolved in DMF in order to obtain a 50 mM Testosterone solution and 5 mM 7-Hydroxy-Coumarin solution. These solutions were then diluted in the incubation medium in order to obtain a 1 mM Testosterone working solution and a 500 uM 7-Hydroxy-Coumarin working solution.
10 μL of each working solution, i.e. 50 uM test compound, 1 mM Testosterone and 500 uM of 7-Hydroxy-Coumarin were added to 990 μL of 0.5×10^6 cell suspensions in order to obtain the final concentrations of 0.5 uM, 10 uM and 5 uM, respectively. The concentration of the organic solvent in each incubation was constant and <1% (v/v).
Test compounds were separately incubated at 0.5 uM for 0, 5, 10, 15, 20, 30, 45, 60, 90, 120, 150 and 180 min (12 time points) with mixed gender human cryopreserved hepatocytes at 37° C. in a 24 well plate. At each time point a robotic handling processor aspirated 50 μL of incubation mixture from each well and dispensed it into a refrigerated 96 well plate, containing 100 μL of acetonitrile with the corresponding internal standard 150 ng/mL to stop the reaction. Then an aliquot of water (120 uL) was added to equilibrate the organic solvent content at 37%. Samples were centrifuged (ca. 3500 g for 10 minutes) prior to LC MS/MS analysis.
Metabolic stability was calculated from the peak area ratio of the remaining test compound with internal standard versus time.
The intrinsic clearance (CLint) was determined from the first order elimination constant k (min^−1) (obtained from GraphPad by plotting the natural logarithm of the peak area ratio of the remaining test item with internal standard versus time), using the actual volume of the incubation V (mL), the amount of hepatocytes in the incubation M (million cells) and the hepatocellularity number per g liver Hn (120 for human).
Values for CLint were expressed as mL/min/g liver.

[3] = test system: Salmonella typhimurium (TA1535, TA1537, TA98 and TA100) and Escherichia coli WP2 uvrA (pKM101); test: Ames testing (bacterial mutagenicity, with and without S9-mix); conditions: 5 to 5000 ug/plate, absence and presence of S9-mix

Structure (SMILES)	fraction unbound at 5 h, 5 micromolar [1]	In vitro CLint [2] [mL/min/g liver]	Rate constant k [2] [min⁻¹]	Ames Result (compound) [3]	clearance in human hepatocytes (in words) [2]
CC[C@H]1NC(=O)N(c2ccc(Oc3cccc4c3C3(CC3)CO4)nc2)C1=O [RE13, (5R)-5-ethyl-3-(6-spiro[2H-benzofuran-3,1′-cyclopropane]-4-yloxy-3-pyridyl)imidazolidine-2,4-dione, reference compound]	0.062	2.16	0.009		
CC[C@H]1NC(=O)N(c2ccc(Oc3ccc(C)c4c3C3(CC3)CO4)nc2)C1=O [RE11, reference compound]	0.021	3.58	0.02	Non- mutagenic	
Cc1ccc(Oc2ncc(N3C(=O)NC(C)(C)C3=O)cn2)c2c1OCC21CC1 [RE5, reference compound]	0.051	0.31	0.002	Non- mutagenic	
CC[C@H]1NC(=O)N(c2cnc(Oc3ccc(C)c4c3C3(CC3)CO4)cn2)C1=O [Example 9, (5R)-5-ethyl-3-[5-(7-methylspiro[2H-benzofuran-3,1′-cyclopropane]-4-yl)oxypyrazin-2-yl]imidazolidine-2,4-dione]	0.03	1.03	0.004	Non- mutagenic	low clearance
CC[C@H]1NC(=O)N(c2cnc(Oc3cccc4c3C3(CC3)CO4)cn2)C1=O [Example 10, (5R)-5-ethyl-3-(5-spiro[2H-benzofuran-3,1′-cyclopropane]-4-yloxypyrazin-2-yl)imidazolidine-2,4-dione]	0.087	0.70	0.003	Non- mutagenic	low clearance
